From article PMC4253011, “Positive allosteric modulation of the adenosine A2a receptor attenuates inflammation” (Journal of Inflammation (London, England), 2014)

What was measured:
murine model of sepsis = test system: murine model of sepsis; design: method as in PMID 18937852; conditions: within 4 h of LPS injection ref 26; cited from earlier work
rat A2aR (rA2aR) = rat A2aR (rA2aR) (Rattus norvegicus, UniProt P30543); assay: cAMP assay in PC-12 cells (endogenous rat A2aR); conditions: A2bR antagonist pre-incubated 15 min
Chain of rat A2aR (rA2aR) (P30543 whole entry): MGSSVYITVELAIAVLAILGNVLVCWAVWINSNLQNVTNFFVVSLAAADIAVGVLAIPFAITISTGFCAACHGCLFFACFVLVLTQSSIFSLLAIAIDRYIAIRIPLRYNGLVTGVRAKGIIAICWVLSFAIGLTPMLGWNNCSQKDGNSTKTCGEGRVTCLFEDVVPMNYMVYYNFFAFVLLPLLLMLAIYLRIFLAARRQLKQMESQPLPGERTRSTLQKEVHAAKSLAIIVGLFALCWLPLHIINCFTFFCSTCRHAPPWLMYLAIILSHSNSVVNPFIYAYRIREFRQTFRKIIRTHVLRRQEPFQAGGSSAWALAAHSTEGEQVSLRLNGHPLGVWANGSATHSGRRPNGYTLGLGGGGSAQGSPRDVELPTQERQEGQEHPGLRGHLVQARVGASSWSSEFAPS

human monocytes = assay: PMA-stimulated TNF-α production by human monocytes; format: cell-based
[1] = rapidly degraded in vivo by adenosine deaminase; no reference given; cited from earlier work

**Q.** For `COC(=O)N1CCC(CC#Cc2nc(N)c3ncn([C@@H]4O[C@H](C(=O)NC5CC5)[C@@H](O)[C@H]4O)c3n2)CC1` [ATL313], which “circulating plasma levels of TNF-α, MIP-1α, MCP-1” value (murine model of sepsis) is on record?
**A.** decreases

**Q.** What about the “plasma level of IL-10” value (murine model of sepsis) of the same compound?
**A.** increases

**Q.** For `CCCn1c(=O)c2[nH]c(-c3ccc(OCC(=O)Nc4ccc(C#N)cc4)cc3)nc2n(CCC)c1=O` [MRS 1754, N-(4-Cyanophenyl)-2-[4-(2,3,6,7-tetrahydro-2,6-dioxo-1,3-dipropyl-1H-purin-8-yl)phenoxy]-acetamide], which “effect on adenosine- or adenosine plus AEA061-induced cAMP production” value (rat A2aR (rA2aR)) is on record?
**A.** failed to inhibit

**Q.** Which “effect on PMA-stimulated TNF-α production” value (human monocytes; human monocytes/macrophages, NECA 1 μM, PMA 5 ng/ml, 12 h) does the source give for `CCNC(=O)[C@H]1O[C@@H](n2cnc3c(N)ncnc32)[C@H](O)[C@@H]1O` [NECA, 5′-N-Ethylcarboxamidoadenosine] here?
**A.** inhibited

**Q.** What does the source list for `Nc1nc(NCCc2ccc(O)cc2)nc2nc(-c3ccco3)nn12` [ZM 241385, 4-(2-[7-Amino-2-(2-furyl)[1,2,4]triazolo[2,3-a][1,3,5]triazin-5-ylamino]ethyl)phenol]?
**A.** effect on AEA061-mediated inhibition of PMA-stimulated TNF-α production (human monocytes; human monocytes, 15 min pretreatment, AEA061 1 μM, PMA 5 ng/ml): blunted; effect on NECA-mediated inhibition of TNF-α production (human monocytes; human monocytes, 15 min pretreatment, NECA 1 μM, PMA 5 ng/ml): reversed the NECA-mediated inhibition in a dose-dependent manner; PMA-stimulated TNF-α responsiveness in NECA- and AEA061-treated cells (human monocytes; human monocytes, ZM 241385 at 1 μM): restored

**Q.** With `Nc1ncnc2c1ncn2[C@@H]1O[C@H](CO)[C@@H](O)[C@H]1O` [adenosine] as the compound, how does the half-life in vivo [1] read?
**A.** less than 10 seconds
